Measurements: ChEMBL document CHEMBL1909046, “DrugMatrix in vitro pharmacology data”

What was measured:
[1] = DRUGMATRIX: Glutamate, Kainate radioligand binding (ligand: [3H] Kainic acid); type: cell membranes, Rattus norvegicus, Wistar, Brain, Membrane; conditions: Not Active = under 50% inhibition at 10 µM
Cytochrome P450 2D6 = Cytochrome P450 2D6 (Homo sapiens, UniProt P10635); conditions: bti-tn-5b1-4; also: in other assays of this panel Not Active means under 50% inhibition at 10 µM
D(1A) dopamine receptor = D(1A) dopamine receptor (Homo sapiens, UniProt P21728); assay: DRUGMATRIX: Dopamine D1 radioligand binding (ligand: [3H] SCH-23390); type: cell membranes, CHO, Membrane; conditions: Not Active = under 50% inhibition at 10 µM
Sequence of D(1A) dopamine receptor (P21728 whole entry): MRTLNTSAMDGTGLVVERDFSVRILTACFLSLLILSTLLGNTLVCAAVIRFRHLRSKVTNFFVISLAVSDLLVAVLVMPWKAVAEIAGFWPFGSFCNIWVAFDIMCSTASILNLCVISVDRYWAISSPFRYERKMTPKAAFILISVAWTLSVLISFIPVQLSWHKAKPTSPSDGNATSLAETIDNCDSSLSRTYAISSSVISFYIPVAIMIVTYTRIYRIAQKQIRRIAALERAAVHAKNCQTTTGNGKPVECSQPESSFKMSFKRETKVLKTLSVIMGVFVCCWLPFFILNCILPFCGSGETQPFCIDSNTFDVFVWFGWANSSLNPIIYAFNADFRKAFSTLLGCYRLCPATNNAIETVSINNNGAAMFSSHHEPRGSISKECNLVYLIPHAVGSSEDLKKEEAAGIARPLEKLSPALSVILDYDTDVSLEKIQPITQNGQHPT

Insulin receptor = Insulin receptor (Rattus norvegicus, UniProt P15127); type: cell membranes, Wistar, Liver, Membrane; also: in other assays of this panel Not Active means under 50% inhibition at 10 µM
Sequence of Insulin receptor (P15127 27-759 limits assumed): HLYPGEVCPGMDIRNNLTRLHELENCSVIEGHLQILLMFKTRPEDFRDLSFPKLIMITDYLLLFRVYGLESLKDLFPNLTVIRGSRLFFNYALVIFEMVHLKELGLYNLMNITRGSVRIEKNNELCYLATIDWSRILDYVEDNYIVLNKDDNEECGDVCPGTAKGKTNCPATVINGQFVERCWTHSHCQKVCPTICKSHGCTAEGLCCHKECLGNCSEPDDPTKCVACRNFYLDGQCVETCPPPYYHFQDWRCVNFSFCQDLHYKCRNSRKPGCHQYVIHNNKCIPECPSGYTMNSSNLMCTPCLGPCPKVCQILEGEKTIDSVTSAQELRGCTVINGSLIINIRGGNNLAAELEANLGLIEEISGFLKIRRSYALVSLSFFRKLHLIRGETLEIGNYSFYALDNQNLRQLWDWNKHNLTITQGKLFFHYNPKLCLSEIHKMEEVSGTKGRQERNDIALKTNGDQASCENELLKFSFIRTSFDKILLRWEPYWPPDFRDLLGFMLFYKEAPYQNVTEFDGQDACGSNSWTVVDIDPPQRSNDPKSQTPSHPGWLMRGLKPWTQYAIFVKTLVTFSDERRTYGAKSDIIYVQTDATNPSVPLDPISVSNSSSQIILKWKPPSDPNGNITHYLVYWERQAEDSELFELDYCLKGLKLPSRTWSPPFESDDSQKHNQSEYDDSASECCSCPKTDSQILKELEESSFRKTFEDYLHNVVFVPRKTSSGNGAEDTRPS
Sequence of Insulin receptor (P15127 764-1383 limits assumed): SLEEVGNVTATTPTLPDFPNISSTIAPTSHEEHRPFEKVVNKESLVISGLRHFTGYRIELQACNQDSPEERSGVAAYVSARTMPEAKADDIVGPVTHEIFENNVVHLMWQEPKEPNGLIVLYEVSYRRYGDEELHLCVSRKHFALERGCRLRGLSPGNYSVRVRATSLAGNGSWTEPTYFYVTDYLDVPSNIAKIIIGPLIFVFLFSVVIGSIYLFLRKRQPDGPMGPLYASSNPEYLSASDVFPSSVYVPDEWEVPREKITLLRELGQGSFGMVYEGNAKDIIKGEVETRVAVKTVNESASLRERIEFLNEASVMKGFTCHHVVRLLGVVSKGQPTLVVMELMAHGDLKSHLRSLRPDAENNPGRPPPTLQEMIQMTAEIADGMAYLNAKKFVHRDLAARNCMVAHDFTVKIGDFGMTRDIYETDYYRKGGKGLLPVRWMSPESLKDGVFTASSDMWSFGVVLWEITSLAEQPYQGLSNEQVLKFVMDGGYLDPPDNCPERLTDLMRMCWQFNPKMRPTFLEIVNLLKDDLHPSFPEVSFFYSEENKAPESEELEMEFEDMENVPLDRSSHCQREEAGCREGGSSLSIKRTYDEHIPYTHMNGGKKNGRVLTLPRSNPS

D(3) dopamine receptor = D(3) dopamine receptor (Homo sapiens, UniProt P35462); assay: DRUGMATRIX: Dopamine D3 radioligand binding (ligand: [3H] Spiperone); type: cell membranes, CHO, Membrane; conditions: for Ki: read-out: Ki
Sequence of D(3) dopamine receptor (P35462 whole entry): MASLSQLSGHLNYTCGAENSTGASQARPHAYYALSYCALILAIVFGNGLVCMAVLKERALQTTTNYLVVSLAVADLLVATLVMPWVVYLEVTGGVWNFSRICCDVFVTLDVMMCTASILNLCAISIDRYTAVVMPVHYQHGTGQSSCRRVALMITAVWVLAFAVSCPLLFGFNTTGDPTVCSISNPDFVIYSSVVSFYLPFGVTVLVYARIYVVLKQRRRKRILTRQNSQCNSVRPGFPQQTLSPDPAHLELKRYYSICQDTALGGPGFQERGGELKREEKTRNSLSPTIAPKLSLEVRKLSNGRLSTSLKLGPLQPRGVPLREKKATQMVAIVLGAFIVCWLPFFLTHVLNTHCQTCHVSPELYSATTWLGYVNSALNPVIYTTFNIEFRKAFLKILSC

Adenosine receptor A3 = target: T1, Adenosine receptor A3 (Homo sapiens, UniProt P0DMS8); type: cell membranes, CHO-K1, Membrane; conditions: cho-k1;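 also: radioligand binding assay with AB-MECA serving as the labeled ligand; in other assays of this panel Not Active means under 50% inhibition at 10 µM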
T1 sequence (P0DMS8 whole entry): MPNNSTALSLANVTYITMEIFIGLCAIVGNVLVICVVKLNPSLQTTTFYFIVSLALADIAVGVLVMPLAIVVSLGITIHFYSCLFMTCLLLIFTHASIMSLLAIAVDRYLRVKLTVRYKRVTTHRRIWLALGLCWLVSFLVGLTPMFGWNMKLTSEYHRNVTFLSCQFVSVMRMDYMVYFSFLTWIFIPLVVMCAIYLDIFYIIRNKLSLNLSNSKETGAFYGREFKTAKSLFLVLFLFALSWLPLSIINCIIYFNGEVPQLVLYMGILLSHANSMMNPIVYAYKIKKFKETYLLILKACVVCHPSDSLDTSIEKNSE

Sequence of Cytochrome P450 2D6 (P10635 whole entry): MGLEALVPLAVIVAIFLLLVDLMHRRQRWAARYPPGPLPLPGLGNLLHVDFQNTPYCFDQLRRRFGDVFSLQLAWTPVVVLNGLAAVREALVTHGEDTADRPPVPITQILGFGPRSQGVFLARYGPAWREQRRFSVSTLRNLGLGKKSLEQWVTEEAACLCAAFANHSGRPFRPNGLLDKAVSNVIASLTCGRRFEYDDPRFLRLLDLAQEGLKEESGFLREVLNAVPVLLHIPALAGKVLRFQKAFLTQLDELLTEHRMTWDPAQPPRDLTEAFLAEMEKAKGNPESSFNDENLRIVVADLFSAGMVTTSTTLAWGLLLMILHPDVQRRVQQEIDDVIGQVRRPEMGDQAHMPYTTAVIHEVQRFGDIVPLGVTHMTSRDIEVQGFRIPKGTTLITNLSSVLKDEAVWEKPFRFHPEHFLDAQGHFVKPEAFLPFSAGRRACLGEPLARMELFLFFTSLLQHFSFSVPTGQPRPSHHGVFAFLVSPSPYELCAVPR

| SMILES | IC50 [1] | Ki [1] | IC50 (Cytochrome P450 2D6) | Ki (Cytochrome P450 2D6) | IC50 (D(1A) dopamine receptor; cho) | IC50 (Insulin receptor) | IC50 (D(3) dopamine receptor; cho) | IC50 (Adenosine receptor A3) | IC50 (D(1A) dopamine receptor; read-out: IC50) | Ki (D(1A) dopamine receptor; read-out: Ki) | IC50 (D(3) dopamine receptor; read-out: IC50) | Ki (D(3) dopamine receptor) |
| --- | --- | --- | --- | --- | --- | --- | --- | --- | --- | --- | --- | --- |
| CN1CCN(c2c(F)cc3c(=O)c(C(=O)O)cn(CCF)c3c2F)CC1 [FLEROXACIN] | Not Active | Not Active | Not Active | Not Active | Not Active | Not Active | Not Active | Not Active |  |  |  |  |
| O=c1[nH]c(=O)n([C@H]2C[C@H](O)[C@@H](CO)O2)cc1F [FLOXURIDINE] | Not Active | Not Active | Not Active | Not Active | Not Active | Not Active | Not Active | Not Active |  |  |  |  |
| COC(=O)Nc1nc2cc(C(=O)c3ccc(F)cc3)ccc2[nH]1 [FLUBENDAZOLE] | Not Active | Not Active | Not Active | Not Active | Not Active | Not Active | Not Active | Not Active |  |  |  |  |
| CC(=O)OCC(=O)[C@@]1(O)CC[C@H]2[C@@H]3CCC4=CC(=O)CC[C@]4(C)[C@@]3(F)[C@@H](O)C[C@@]21C [FLUDROCORTISONE ACETATE] | Not Active | Not Active | Not Active | Not Active | Not Active | Not Active | Not Active | Not Active |  |  |  |  |
| CCOC(=O)c1ncn2c1CN(C)C(=O)c1cc(F)ccc1-2 [FLUMAZENIL] | Not Active | Not Active | Not Active | Not Active | Not Active | Not Active | Not Active | Not Active |  |  |  |  |
| O=C(O)P(=O)(O)O [FOSCARNET] | Not Active | Not Active | Not Active | Not Active | Not Active | Not Active | Not Active | Not Active |  |  |  |  |
| Cc1ccc(C)c(OCCCC(C)(C)C(=O)O)c1 [GEMFIBROZIL] | Not Active | Not Active | Not Active | Not Active | Not Active | Not Active | Not Active | Not Active |  |  |  |  |
| O=c1c(-c2ccc(O)cc2)coc2cc(O)cc(O)c12 [GENISTEIN] | Not Active | Not Active | Not Active | Not Active | Not Active | Not Active | Not Active | Not Active |  |  |  |  |
| CCC1=C(C)CN(C(=O)NCCc2ccc(S(=O)(=O)NC(=O)N[C@H]3CC[C@H](C)CC3)cc2)C1=O [GLIMEPIRIDE] | Not Active | Not Active | Not Active | Not Active | Not Active | Not Active | Not Active | Not Active |  |  |  |  |
| Nc1cc(-c2ccncc2)c[nH]c1=O [INAMRINONE] | Not Active | Not Active | Not Active | Not Active | Not Active | Not Active | Not Active | Not Active |  |  |  |  |
| CCCCC1=NC2(CCCC2)C(=O)N1Cc1ccc(-c2ccccc2-c2nnn[nH]2)cc1 [IRBESARTAN] | Not Active | Not Active | Not Active | Not Active | Not Active | Not Active | Not Active | Not Active |  |  |  |  |
| CN1CCC(=C2c3ccccc3CC(=O)c3sccc32)CC1 [KETOTIFEN] | Not Active | Not Active | Not Active | Not Active |  | Not Active |  | Not Active | 872 nM | 436 nM | 1960 nM | 667 nM |
| C[N+](C)(C)C[C@H](O)CC(=O)[O-] [LEVOCARNITINE] | Not Active | Not Active | Not Active | Not Active | Not Active | Not Active | Not Active | Not Active |  |  |  |  |
| C[C@H]1COc2c(N3CCN(C)CC3)c(F)cc3c(=O)c(C(=O)O)cn1c23.C[C@H]1COc2c(N3CCN(C)CC3)c(F)cc3c(=O)c(C(=O)O)cn1c23.O [LEVOFLOXACIN] | Not Active | Not Active | Not Active | Not Active | Not Active | Not Active | Not Active | Not Active |  |  |  |  |
| CCn1cc(C(=O)O)c(=O)c2cc(F)c(N3CCNC(C)C3)c(F)c21 (stereo unspecified) [LOMEFLOXACIN] | Not Active | Not Active | Not Active | Not Active | Not Active | Not Active | Not Active | Not Active |  |  |  |  |
| CN1CCCC(CN2c3ccccc3Sc3ccccc32)C1 (stereo unspecified) [MEPAZINE] | Not Active | Not Active | Not Active | Not Active | Not Active | Not Active |  | Not Active |  |  | 2010 nM | 681 nM |

| SMILES | IC50 [1] | Ki [1] | IC50 (Cytochrome P450 2D6) | Ki (Cytochrome P450 2D6) | IC50 (D(1A) dopamine receptor; cho) | IC50 (Insulin receptor) | IC50 (D(3) dopamine receptor; cho) | IC50 (Adenosine receptor A3) | IC50 (D(1A) dopamine receptor; read-out: IC50) | Ki (D(1A) dopamine receptor; read-out: Ki) | IC50 (D(3) dopamine receptor; read-out: IC50) | Ki (D(3) dopamine receptor) |
| --- | --- | --- | --- | --- | --- | --- | --- | --- | --- | --- | --- | --- |
| Cc1cccc(C)c1NC(=O)C1CCCCN1C (stereo unspecified) [MEPIVACAINE] | Not Active | Not Active | Not Active | Not Active | Not Active | Not Active | Not Active | Not Active |  |  |  |  |
| CN(C)C(=N)NC(=N)N [METFORMIN] | Not Active | Not Active | Not Active | Not Active | Not Active | Not Active | Not Active | Not Active |  |  |  |  |
| CC(C)(C)NCC(O)COc1cccc2c1CC(O)C(O)C2 (stereo unspecified) [NADOLOL] | Not Active | Not Active | Not Active | Not Active | Not Active | Not Active | Not Active | Not Active |  |  |  |  |
| C[C@]12CC[C@H]3[C@@H](CCC4=CC(=O)CC[C@@H]43)[C@@H]1CC[C@@H]2O [NANDROLONE] | Not Active | Not Active | Not Active | Not Active | Not Active | Not Active | Not Active | Not Active |  |  |  |  |
| CN(C)C(=O)Oc1cccc([N+](C)(C)C)c1.[Br-] [NEOSTIGMINE BROMIDE] | Not Active | Not Active | Not Active | Not Active | Not Active | Not Active | Not Active | Not Active |  |  |  |  |
| NC(=O)c1cccnc1 [NIACINAMIDE] | Not Active | Not Active | Not Active | Not Active | Not Active | Not Active | Not Active | Not Active |  |  |  |  |
| CS(=O)(=O)Nc1ccc([N+](=O)[O-])cc1Oc1ccccc1 [NIMESULIDE] | Not Active | Not Active | Not Active | Not Active | Not Active | Not Active | Not Active | Not Active |  |  |  |  |
| CN1C(=O)CN=C(c2ccccc2)c2cc([N+](=O)[O-])ccc21 [NIMETAZEPAM] | Not Active | Not Active | Not Active | Not Active | Not Active | Not Active | Not Active | Not Active |  |  |  |  |
| COc1ccc2c(c1OC)C(=O)O[C@@H]2[C@H]1c2c(cc3c(c2OC)OCO3)CCN1C [NOSCAPINE] | Not Active | Not Active | Not Active | Not Active | Not Active | Not Active | Not Active | Not Active |  |  |  |  |
| C[C@@H]1O[C@@H](O[C@H]2C[C@@H](O)[C@]3(CO)[C@H]4[C@H](O)C[C@]5(C)[C@@H](C6=CC(=O)OC6)CC[C@]5(O)[C@@H]4CC[C@]3(O)C2)[C@H](O)[C@H](O)[C@H]1O [OUABAIN] | Not Active | Not Active | Not Active | Not Active | Not Active | Not Active | Not Active | Not Active |  |  |  |  |
| NC(=O)N1c2ccccc2CC(=O)c2ccccc21 [OXCARBAZEPINE] | Not Active | Not Active | Not Active | Not Active | Not Active | Not Active | Not Active | Not Active |  |  |  |  |
| COc1ccnc(C[S+]([O-])c2nc3ccc(OC(F)F)cc3[nH]2)c1OC (stereo unspecified) [PANTOPRAZOLE] | Not Active | Not Active | Not Active | Not Active | Not Active | Not Active | Not Active | Not Active |  |  |  |  |
| CCc1ccc(CCOc2ccc(CC3SC(=O)NC3=O)cc2)nc1 (stereo unspecified) [PIOGLITAZONE] | Not Active | Not Active | Not Active | Not Active | Not Active | Not Active | Not Active | Not Active |  |  |  |  |
| CCCNC(C)C(=O)Nc1ccccc1C (stereo unspecified) [PRILOCAINE] | Not Active | Not Active | Not Active | Not Active | Not Active | Not Active | Not Active | Not Active |  |  |  |  |
| CCN(CC)CCNC(=O)c1ccc(N)cc1 [PROCAINAMIDE] | Not Active | Not Active | Not Active | Not Active | Not Active | Not Active | Not Active | Not Active |  |  |  |  |
